What was measured:
retinal F4/80+ cells = test: Cellular infiltration assay in laser CNV model, retinal F4/80+ macrophages; assay type: in vivo, mouse
Description: (§1) In one experiment, Compound (Ia) or vehicle was dosed orally at 30, 100 or 200 mg/kg starting about 1 hour before laser and continued administration daily until the day before tissue harvest.
(§2) In a second experiment, mice were dosed daily with 50 mg/kg of Compound (Ia) and with i.p. injections of a mouse anti-VEGF antibody at a dose of 0.3 mg/kg at day 0, 2 and 4. Other groups of mice in the experiment were dosed with monotherapy of Compound (Ia) or the anti-VEGF antibody at higher doses.
(§3) Cellular infiltration into the retina, the PEC or the CNV lesion was assessed after laser application. Eyes were fixed with 4% Paraformaldehyde for ˜90 minutes. After fixation, whole eyes were dissected into the retina and PEC. […]
(§4) Iba1+ cells in the PEC peripheral to the CNV lesion were counted using a different semi-automatic MatLab code. […] The operator is then presented with masked, randomized images and allowed the functionality to remove miscellaneous fluorescence (false positive) and add missed cells (false negative) to the analysis. Confluent microglia cells and CNV lesions were excluded from the quantification analysis. In a study, each assessed condition consisted of 10 eyes from 5 mice and would typically yield 10 data points. […] F4/80+ cells in the retina were counted using a similar semi-automatic MatLab code and followed the same procedure as above. […]

subretinal Iba1+ cells = test: Cellular infiltration assay in laser CNV model, subretinal Iba1+ microglia; assay type: in vivo, mouse
Description: as §1, §2, §3, §4

VEGF = test: Interaction with VEGF versus CSF-1 receptor signaling; settings: at concentrations where the signaling of the CSF-1 receptor is strongly or completely inhibited
[1] = test system: macrophages in areas around the ciliary body; test: Macrophages around the ciliary body in CX3CR1-GFP reporter mice; assay type: in vivo, mouse; settings: salt of Compound (Ia), oral 200 mg/kg daily for 14 days
Description: To investigate the effects of CSF-1R inhibition on inflammation, Compound (Ia) was assessed in CX3CR1-GFP reporter mice (which report on macrophage and microglia). The presence of macrophages in areas around the ciliary body in the front of the eye (but not in the cornea) was examined and confirmed by anti-GFP immunohistochemistry staining (see panels (a) and (b) in FIG. 4). The arrow-indicated dots are the positive stained macrophage cells).
In this experiment, mice was treated with a salt of Compound (Ia) orally at 200 mg/kg daily for 14 days and immediately examined for the presence of macrophages (see panels (c) and (d) in FIG. 4).

[2] = test system: choroidal neovascularization; test: Laser-induced choroidal neovascularization model, CNV area; assay type: in vivo, mouse; settings: oral daily, 30, 100 or 200 mg/kg, dose dependent; tissues harvested day 7
Description: To investigate the effects of CSF-1R inhibition on ocular angiogenesis and inflammation, Compound (Ia) was assessed in a rodent model of laser-induced choroidal neovascularization (methods below) for effect on blood vessel growth and cellular infiltration after a laser injury. Compound (Ia) was assessed either as a monotherapy or in combination with a suboptimal dose of a VEGF antibody.
as §1, §2
Mouse pupils were dilated with one drop (˜40 μL) of 1% cyclopentolate. Just before anesthesia, pupil dilation was maximized with an additional drop of phenylephrine (usually 10% but occasionally 2.5% depending upon availability). […]
Analysis of neovascularization was completed on tissues harvested 7 days after laser photocoagulation. […] CNV area was quantified using a semi-automated analysis program (Axiovision software version 4.5, Carl Zeiss Microscopy) that outlined the fluorescent blood vessels. […]

| Compound | reduction in retinal F4/80+ cells (macrophages) (retinal F4/80+ cells; 200 mg/kg oral) | macrophages in the retina (retinal F4/80+ cells; 50 and 200 mg/kg) | reduction in subretinal Iba1+ cells (microglia) (subretinal Iba1+ cells; 200 mg/kg oral) | microglia in the subretinal space (subretinal Iba1+ cells; 50 and 200 mg/kg) | interaction with VEGF (VEGF) | macrophages in areas around the ciliary body, day 14 ([1]; day 14) | macrophages in areas around the ciliary body, day 21 ([1]; day 21) | macrophages in areas around the ciliary body, day 44 ([1]; day 44) | reduction in CNV area compared to vehicle [2] [%] |
| --- | --- | --- | --- | --- | --- | --- | --- | --- | --- |
| CNC(=O)c1cc(Oc2ccc3nc(N[C@@H]4CCCC[C@H]4O)sc3c2)ccn1 [Compound (Ia), 4-((2-(((1R,2R)-2-hydroxycyclohexyl)amino)benzo[d]thiazol-6-yl)oxy)-N-methylpicolinamide] | 83-84% | significantly reduced | 66-99% | significantly reduced | not to interact strongly | depleted | started to return | almost back to steady state | 75 |
| CNC(=O)c1cc(Oc2ccc3nc(N[C@H]4CCCC[C@@H]4O)sc3c2)ccn1 [Compound (Ib), 4-((2-(((1S,2S)-2-hydroxycyclohexyl)amino)benzo[d]thiazol-6-yl)oxy)-N-methylpicolinamide] | – | – | – | – | not to interact strongly | – | – | – | – |

From patent US10537563B2, “Methods for treating ocular disease using inhibitors of CSF-1R” (NOVARTIS AG, priority 2016, dated 2020)
